Reference: ChEMBL document CHEMBL4507328, “Data for DCP probe BAY-390” (2021)
Active and inactive are the calls of the source. The calls are words filed in the database; no cut-off is given here.

How the values were obtained:
[1] = biological target: T1, Transient receptor potential cation channel subfamily A member 1 (Homo sapiens, UniProt O75762); assay: FLIPR Ca2+ assay (human […])
[2] = biological target: Transient receptor potential cation channel subfamily A member 1 (Rattus norvegicus, UniProt Q6RI86); assay: FLIPR Ca2+ assay (rat TRPA1)
[3] = biological target: Transient receptor potential cation channel subfamily V member 1 (Homo sapiens, UniProt Q8NER1); assay: TRP selectivity screen (TRPV1)
[4] = biological target: Short transient receptor potential channel 5 (Homo sapiens, UniProt Q9UL62); assay: TRP selectivity screen (TRPC5)
[5] = biological target: Short transient receptor potential channel 6 (Homo sapiens, UniProt Q9Y210); assay: TRP selectivity screen (TRPC6)
[6] = biological target: 5-hydroxytryptamine receptor 2A (Homo sapiens, UniProt P28223); settings: Compound concentration 10.0 uM
[7] = biological target: Sodium-dependent serotonin transporter (Homo sapiens) (UniProt P31645); settings: Compound concentration 10.0 uM
[8] = biological target: Delta-type opioid receptor (Homo sapiens) (UniProt P41143); settings: Compound concentration 10.0 uM
[9] = biological target: T2, Alpha-1A adrenergic receptor (Homo sapiens) (UniProt P35348); settings: Compound concentration 10.0 uM
T2 sequence (whole entry): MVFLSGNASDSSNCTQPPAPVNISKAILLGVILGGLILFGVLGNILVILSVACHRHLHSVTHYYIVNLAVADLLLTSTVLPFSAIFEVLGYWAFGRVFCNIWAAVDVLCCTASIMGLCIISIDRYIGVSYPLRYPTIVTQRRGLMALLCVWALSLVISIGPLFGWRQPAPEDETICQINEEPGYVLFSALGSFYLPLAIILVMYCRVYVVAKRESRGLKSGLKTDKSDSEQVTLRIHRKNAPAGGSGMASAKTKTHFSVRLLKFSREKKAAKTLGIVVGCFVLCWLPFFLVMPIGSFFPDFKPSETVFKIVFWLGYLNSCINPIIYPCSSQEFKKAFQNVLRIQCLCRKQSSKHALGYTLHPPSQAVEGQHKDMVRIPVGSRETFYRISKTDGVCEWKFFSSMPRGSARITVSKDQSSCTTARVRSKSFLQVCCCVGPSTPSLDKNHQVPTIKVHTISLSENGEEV

[10] = biological target: Alpha-2B adrenergic receptor (Homo sapiens) (UniProt P18089); settings: Compound concentration 10.0 uM
[11] = biological target: T3, Muscarinic acetylcholine receptor M1 (Homo sapiens) (UniProt P11229); settings: Compound concentration 10.0 uM
T3 sequence (whole entry): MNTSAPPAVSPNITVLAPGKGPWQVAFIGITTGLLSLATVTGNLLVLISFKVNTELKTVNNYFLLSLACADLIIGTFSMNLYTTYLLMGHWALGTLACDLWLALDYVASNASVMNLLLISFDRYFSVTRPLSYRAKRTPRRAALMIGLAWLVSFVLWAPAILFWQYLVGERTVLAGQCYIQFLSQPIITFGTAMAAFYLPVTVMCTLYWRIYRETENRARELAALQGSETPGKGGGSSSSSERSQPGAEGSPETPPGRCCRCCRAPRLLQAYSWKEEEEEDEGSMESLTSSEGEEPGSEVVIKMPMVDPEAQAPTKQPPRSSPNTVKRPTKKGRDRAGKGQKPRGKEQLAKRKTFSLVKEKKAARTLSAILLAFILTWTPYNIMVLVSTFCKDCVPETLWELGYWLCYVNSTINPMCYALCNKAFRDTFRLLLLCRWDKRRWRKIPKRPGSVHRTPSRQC

[12] = biological target: Muscarinic acetylcholine receptor M3 (Homo sapiens) (UniProt P20309); settings: Compound concentration 10.0 uM
[13] = biological target: T4, Muscarinic acetylcholine receptor M4 (Homo sapiens) (UniProt P08173); settings: Compound concentration 10.0 uM
T4 sequence (whole entry): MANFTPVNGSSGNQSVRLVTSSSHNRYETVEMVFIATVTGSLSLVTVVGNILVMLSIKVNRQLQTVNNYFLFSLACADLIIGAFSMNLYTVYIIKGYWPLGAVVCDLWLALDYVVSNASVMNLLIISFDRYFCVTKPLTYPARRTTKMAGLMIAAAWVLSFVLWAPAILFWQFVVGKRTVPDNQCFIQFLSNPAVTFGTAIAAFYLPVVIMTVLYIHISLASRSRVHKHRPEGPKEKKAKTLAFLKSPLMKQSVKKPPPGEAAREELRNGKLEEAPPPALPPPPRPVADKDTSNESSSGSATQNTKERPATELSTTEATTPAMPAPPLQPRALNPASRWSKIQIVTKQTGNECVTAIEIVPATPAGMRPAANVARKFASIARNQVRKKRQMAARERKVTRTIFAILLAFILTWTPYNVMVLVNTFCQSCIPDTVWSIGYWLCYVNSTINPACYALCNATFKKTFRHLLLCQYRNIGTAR

[14] = biological target: Estrogen receptor (Homo sapiens, UniProt P03372); assay: Inhibition of Estrogen ERalpha at compound concentration of 10.0 uM in the Eurofins-Panlabs radioligand binding assay (Eurofins_assay_226010); parameters: ligand concentration 0.5 nM, non-specific ligand with concentration 1 uM Diethylstilbestrol, incubation time 2 h, incubation temperature 25 C
[15] = species on record: Homo sapiens; assay: Inhibition of Nicotinic Acetylcholine at compound concentration of 10.0 uM in the Eurofins-Panlabs radioligand binding assay (Eurofins_assay_258590); assay type: protein-complex assay; settings: Compound concentration 10.0 uM
[16] = biological target: Progesterone receptor (Homo sapiens, UniProt P06401); assay: Inhibition of Progesterone PR-B at compound concentration of 10.0 uM in the Eurofins-Panlabs radioligand binding assay (Eurofins_assay_299005); parameters: ligand concentration 0.5 nM, non-specific ligand with concentration 1 uM R5020, incubation time 20 h, incubation temperature 4 C
[17] = biological target: T1, Transient receptor potential cation channel subfamily A member 1; assay: Ephys (human TRPA1)
[18] = biological target: Short transient receptor potential channel 3 (Homo sapiens, UniProt Q13507); assay: TRP selectivity screen (TRPC3)
[19] = biological target: Potassium channel subfamily K member 9 (Homo sapiens, UniProt Q9NPC2); assay: Selectivity screen (KCNK9)
[20] = biological target: Voltage-dependent T-type calcium channel subunit alpha-1H (Homo sapiens, UniProt O95180); assay: Selectivity screen (CACNA1H)
[21] = biological target: Sodium-dependent noradrenaline transporter (Homo sapiens) (UniProt P23975); settings: Compound concentration 10.0 uM
[22] = biological target: B2 bradykinin receptor (Homo sapiens) (UniProt P30411); settings: Compound concentration 10.0 uM
[23] = biological target: Histamine H1 receptor (Homo sapiens) (UniProt P35367); settings: Compound concentration 10.0 uM
[24] = biological target: T3, Muscarinic acetylcholine receptor M1 (Homo sapiens); settings: Compound concentration 10.0 uM; remark: listed apart in the source
[25] = biological target: Delta-type opioid receptor (Homo sapiens) (UniProt P41143); settings: Compound concentration 10.0 uM; remark: listed apart in the source
[26] = biological target: Sodium-dependent serotonin transporter (Homo sapiens) (UniProt P31645); settings: Compound concentration 10.0 uM; remark: listed apart in the source
[27] = biological target: D(2) dopamine receptor (Homo sapiens) (UniProt P14416); settings: Compound concentration 10.0 uM

T1 sequence (O75762 whole entry): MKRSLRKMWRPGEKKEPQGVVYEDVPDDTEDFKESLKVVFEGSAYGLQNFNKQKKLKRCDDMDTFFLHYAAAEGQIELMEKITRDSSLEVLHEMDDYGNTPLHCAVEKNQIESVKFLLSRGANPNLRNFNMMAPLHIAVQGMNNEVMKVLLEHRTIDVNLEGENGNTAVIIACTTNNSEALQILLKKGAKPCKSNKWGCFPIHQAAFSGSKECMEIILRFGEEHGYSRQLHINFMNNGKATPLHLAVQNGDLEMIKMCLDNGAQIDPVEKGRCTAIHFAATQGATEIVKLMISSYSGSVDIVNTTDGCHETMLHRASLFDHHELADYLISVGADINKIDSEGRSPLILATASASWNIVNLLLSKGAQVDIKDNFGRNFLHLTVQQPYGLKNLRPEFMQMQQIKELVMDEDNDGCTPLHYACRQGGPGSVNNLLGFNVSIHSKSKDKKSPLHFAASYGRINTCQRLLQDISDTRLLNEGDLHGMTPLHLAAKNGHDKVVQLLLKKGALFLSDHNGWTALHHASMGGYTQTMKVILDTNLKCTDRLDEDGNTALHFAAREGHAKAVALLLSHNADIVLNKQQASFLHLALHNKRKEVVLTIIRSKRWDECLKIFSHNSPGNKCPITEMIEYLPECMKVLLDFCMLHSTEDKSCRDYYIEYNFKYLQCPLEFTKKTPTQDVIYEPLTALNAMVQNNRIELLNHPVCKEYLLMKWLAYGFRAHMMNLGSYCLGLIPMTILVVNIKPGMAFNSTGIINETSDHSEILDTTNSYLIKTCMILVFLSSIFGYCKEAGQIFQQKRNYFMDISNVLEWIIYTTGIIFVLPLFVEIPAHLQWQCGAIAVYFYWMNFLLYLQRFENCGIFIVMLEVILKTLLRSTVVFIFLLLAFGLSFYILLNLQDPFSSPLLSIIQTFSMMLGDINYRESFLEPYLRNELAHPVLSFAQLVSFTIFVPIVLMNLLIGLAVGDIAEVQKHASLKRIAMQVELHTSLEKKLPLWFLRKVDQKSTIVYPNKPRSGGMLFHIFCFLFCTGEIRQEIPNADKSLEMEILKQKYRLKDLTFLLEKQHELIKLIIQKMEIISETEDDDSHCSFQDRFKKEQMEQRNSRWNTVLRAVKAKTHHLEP
Chain of Sodium-dependent serotonin transporter (Homo sapiens) (P31645 whole entry, looked up): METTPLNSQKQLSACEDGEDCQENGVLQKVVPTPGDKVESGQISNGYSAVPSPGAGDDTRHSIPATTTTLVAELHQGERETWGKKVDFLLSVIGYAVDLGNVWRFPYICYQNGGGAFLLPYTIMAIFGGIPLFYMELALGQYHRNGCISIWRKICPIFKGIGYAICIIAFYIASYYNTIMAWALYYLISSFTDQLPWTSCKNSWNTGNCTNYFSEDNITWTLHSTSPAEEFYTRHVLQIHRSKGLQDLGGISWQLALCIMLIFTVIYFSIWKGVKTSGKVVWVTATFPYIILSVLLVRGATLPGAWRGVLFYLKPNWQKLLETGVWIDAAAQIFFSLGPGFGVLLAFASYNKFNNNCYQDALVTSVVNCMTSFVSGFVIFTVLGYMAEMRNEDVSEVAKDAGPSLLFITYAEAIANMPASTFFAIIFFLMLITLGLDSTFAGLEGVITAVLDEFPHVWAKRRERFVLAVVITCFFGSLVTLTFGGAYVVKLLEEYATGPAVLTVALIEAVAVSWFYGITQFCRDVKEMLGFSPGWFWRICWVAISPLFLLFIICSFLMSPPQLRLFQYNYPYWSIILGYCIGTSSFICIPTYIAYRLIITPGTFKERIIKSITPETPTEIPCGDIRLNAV
Chain of Delta-type opioid receptor (Homo sapiens) (P41143 whole entry): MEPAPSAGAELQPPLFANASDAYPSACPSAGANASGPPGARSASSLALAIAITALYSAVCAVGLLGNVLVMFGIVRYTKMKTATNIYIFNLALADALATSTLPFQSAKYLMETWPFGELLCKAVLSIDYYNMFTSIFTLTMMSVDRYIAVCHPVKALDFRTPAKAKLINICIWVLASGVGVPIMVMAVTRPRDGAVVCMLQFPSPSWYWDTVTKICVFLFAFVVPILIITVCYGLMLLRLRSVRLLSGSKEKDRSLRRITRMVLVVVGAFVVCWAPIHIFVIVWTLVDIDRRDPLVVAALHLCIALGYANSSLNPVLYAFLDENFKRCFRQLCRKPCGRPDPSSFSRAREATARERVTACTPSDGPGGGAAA
Chain of Short transient receptor potential channel 6 (Q9Y210 whole entry): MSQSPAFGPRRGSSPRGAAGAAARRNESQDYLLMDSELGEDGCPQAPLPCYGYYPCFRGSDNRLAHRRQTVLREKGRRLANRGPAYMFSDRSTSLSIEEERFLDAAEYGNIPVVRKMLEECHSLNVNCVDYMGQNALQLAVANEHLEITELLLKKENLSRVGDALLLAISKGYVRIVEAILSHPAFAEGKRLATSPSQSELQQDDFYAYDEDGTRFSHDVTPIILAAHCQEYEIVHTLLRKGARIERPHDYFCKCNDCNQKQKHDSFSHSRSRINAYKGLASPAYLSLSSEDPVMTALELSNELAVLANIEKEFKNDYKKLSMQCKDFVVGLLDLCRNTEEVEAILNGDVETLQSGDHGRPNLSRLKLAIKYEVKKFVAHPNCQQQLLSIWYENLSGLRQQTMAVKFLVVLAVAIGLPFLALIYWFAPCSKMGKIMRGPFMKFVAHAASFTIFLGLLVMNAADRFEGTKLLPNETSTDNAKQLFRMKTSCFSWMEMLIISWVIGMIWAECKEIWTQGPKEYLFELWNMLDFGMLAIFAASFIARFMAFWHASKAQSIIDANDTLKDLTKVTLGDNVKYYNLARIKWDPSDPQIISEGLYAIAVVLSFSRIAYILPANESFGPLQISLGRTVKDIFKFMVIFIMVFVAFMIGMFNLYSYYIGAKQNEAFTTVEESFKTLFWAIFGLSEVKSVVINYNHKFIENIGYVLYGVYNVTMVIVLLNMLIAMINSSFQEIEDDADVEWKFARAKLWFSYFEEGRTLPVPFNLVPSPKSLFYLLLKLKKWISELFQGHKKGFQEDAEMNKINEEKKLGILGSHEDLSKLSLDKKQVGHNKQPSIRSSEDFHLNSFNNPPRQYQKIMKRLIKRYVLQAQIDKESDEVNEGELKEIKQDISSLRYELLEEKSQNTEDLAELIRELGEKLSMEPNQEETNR
Chain of 5-hydroxytryptamine receptor 2A (P28223 whole entry): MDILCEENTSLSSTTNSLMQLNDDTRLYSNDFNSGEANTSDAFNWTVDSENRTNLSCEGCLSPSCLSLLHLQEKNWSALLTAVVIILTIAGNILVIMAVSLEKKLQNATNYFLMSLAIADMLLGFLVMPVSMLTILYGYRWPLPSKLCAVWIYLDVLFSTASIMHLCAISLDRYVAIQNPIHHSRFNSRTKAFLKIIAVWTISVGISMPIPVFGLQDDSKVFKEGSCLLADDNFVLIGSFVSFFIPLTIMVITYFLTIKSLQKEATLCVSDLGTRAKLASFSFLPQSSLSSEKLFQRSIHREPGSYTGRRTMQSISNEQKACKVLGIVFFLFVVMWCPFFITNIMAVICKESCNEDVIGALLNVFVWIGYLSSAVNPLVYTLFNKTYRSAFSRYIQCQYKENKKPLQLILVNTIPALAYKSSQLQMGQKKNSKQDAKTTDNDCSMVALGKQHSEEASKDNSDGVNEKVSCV
Chain of Progesterone receptor (P06401 whole entry): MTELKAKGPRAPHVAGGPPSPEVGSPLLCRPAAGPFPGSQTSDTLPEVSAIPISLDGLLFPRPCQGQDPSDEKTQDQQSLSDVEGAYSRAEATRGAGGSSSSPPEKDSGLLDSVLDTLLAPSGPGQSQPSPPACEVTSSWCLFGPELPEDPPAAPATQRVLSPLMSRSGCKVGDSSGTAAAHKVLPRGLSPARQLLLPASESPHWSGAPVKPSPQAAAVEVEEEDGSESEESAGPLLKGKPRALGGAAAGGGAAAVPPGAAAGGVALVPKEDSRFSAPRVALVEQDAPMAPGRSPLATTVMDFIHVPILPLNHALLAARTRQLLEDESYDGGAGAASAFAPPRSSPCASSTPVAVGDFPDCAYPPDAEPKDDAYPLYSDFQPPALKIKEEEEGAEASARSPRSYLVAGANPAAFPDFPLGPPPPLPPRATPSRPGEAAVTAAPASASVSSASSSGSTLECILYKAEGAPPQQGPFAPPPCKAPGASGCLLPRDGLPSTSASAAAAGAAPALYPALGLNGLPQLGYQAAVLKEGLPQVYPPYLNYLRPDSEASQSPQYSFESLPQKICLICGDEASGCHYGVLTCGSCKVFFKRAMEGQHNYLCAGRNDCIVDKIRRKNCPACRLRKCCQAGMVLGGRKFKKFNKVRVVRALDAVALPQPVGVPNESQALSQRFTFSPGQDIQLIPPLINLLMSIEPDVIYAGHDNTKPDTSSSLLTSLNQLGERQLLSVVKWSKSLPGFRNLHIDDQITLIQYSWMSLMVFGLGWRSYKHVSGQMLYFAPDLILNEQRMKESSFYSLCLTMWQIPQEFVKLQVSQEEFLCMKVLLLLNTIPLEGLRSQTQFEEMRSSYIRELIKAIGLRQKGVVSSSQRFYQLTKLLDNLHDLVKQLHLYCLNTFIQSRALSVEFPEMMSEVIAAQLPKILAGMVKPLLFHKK
Chain of Estrogen receptor (P03372 whole entry): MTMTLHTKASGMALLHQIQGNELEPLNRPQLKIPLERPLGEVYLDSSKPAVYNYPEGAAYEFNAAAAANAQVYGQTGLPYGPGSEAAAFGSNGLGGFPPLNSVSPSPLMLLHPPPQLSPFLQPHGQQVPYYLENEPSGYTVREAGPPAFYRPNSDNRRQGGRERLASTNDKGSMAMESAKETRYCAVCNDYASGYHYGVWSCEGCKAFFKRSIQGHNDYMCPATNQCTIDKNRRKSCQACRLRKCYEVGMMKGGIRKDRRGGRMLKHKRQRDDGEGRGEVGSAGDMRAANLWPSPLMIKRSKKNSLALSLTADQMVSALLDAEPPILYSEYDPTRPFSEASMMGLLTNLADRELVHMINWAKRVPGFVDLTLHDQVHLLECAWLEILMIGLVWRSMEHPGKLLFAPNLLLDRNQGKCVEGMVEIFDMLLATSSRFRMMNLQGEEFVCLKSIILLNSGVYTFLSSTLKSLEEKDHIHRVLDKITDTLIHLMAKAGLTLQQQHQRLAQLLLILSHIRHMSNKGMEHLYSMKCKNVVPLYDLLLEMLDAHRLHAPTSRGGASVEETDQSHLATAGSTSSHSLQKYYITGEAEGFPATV

SMILES	IC50 [1]	IC50 [2]	IC50 [3]	IC50 [4]	IC50 [5]	inhibition [6] [%]	inhibition [7] [%]	inhibition [8] [%]	inhibition [9] [%]	inhibition [11] [%]	inhibition [12] [%]	inhibition [13] [%]	further results
COc1cc(N[C@@H]2CCCC[C@]2(O)C(F)(F)F)ccc1F [BAY-9897]	> 25 µM (not active)	> 25 µM (not active)	> 25 µM (not active)	10 µM (not active)	> 30 µM (not active)	1	15.6	14.4	2.69	18.5	25.6	-3.95	inhibition [10]: -0.18%
O[C@]1(C(F)(F)F)CCCC[C@H]1Nc1ccc(F)cc1 [BAY-390]	0.016 µM (active)	0.063 µM (active)	> 25 µM (not active)	5.6 µM (not active)	> 25 µM (not active)	69.4	-0.01	21.4	-8.22	8.3	4.73	13.9	IC50 [14]: 2.5 µM; Ki [14]: 0.72 µM; inhibition [15]: -7%; IC50 [16]: 5 µM; Ki [16]: 4 µM; IC50 [17]: 0.082 µM (active); IC50 [18]: > 25 µM (not active); IC50 [19]: > 25 µM (not active); IC50 [20]: > 30 µM (not active); inhibition [21]: 0.78%; inhibition [22]: 4%; inhibition [23]: 6%; inhibition [24]: -1%; inhibition [25]: -6%; inhibition [26]: 3%; inhibition [27]: 12%
